From patent publication US20100216767A1, “QUINAZOLINES FOR PDK1 INHIBITION” (priority 2006, published 2010) come the findings set out here.

Bounds are passed on as bounds.

The target of the assay is T1, PDK1 kinase (Homo sapiens, UniProt O15530).
T1 sequence (O15530 1-556): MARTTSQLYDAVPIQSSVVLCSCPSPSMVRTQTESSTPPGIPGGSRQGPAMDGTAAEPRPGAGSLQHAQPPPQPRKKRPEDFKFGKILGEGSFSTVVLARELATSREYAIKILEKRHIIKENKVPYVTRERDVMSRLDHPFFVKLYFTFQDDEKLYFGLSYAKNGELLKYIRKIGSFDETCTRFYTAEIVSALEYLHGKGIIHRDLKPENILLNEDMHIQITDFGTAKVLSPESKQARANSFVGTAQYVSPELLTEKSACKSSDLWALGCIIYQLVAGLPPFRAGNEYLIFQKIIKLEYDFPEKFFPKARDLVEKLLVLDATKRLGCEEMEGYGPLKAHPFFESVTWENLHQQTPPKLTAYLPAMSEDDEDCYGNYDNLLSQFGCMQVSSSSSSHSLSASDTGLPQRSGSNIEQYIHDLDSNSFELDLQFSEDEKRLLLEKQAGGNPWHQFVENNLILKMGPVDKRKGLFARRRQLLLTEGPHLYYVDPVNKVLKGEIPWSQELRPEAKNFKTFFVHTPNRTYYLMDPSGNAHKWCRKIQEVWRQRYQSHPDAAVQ
The assay can be described thus: PDK1 Kinase Alpha Screen Assay. The format is biochemical. Conditions: Table 1; 10 μM ATP, 50 nM PDK1-4 peptide. The method, then: Reagents/Concentrations: The PDK1-4 peptide substrate, biotin-[…]-NH2, (SEQ ID NO: 1), was purchased from the Tufts University Core Facility. The final concentration of PDK1-4 peptide substrate was 50 nM. The ATP substrate (adenosine-[…] triphosphate) was purchased from Roche Diagnostics. The final concentration of ATP substrate was 10 μM. Phospho-(Ser/Thr) PKA substrate antibody was purchased from Cell Signaling Technology. The final concentration of antibody was 0.3 mg/mL. The Alpha Screen Protein A detection kit containing donor and acceptor beads was purchased from PerkinElmer Life Sciences. The final concentration of both donor and acceptor beads was 25 μg/mL. Alpha Screen was used for detection. The biotinylated-PDK1-4 peptide was phosphorylated by PDK1 kinase using the ATP substrate. The biotinylated-PDK1-4 peptide substrate was bound to the streptavidin coated donor bead. The antibody was bound to the protein A coated acceptor bead. The antibody bound to the phosphorylated form of the biotinylated PDK-1 peptide substrate, bringing the donor and acceptor beads into close proximity. Laser irradiation of the donor bead at 680 nm generated a flow of short-lived singlet oxygen molecules. When the donor and acceptor beads were in close proximity, the reactive oxygen generated by the irradiation of the donor beads initiated a luminescence/fluorescence cascade in the acceptor beads. This process led to a highly amplified signal with output in the 530-620 nm range. Assays were carried out in 50 mM Tris, pH=7.5, 10 mM MgCl2, 0.1% BSA, 0.01% Tween-20, 2 mM dithiolthreitol, 2.5% dimethyl sulfoxide. Reactions were stopped by adding 50 mM Tris, pH=7.5, 90 mM EDTA, 0.1% BSA, 0.01% Tween-20.
Procedure: To 10 μl, of PDK1-4 peptide, […] of test compound in dimethyl sulfoxide was added. PDK1 kinase and ATP were mixed, and 10 μL of the PDK1 kinase/ATP mix was added to start the reaction. The reaction was allowed to proceed for 3-18 hours. The reactions were then stopped by adding 10 μL of the EDTA-containing stop buffer. Beads were mixed with antibody, and 25 μL of the bead/antibody mix was then added to the stopped reactions. Plates were incubated at room temperature overnight to allow for detection development before being read. The assay was run in a 384-well format plate.
`CC(=O)Nc1cc(Nc2ncc3cc(Br)ccc3n2)cc(-c2cccnc2)c1` [Example 32, N-(3-(6-Bromoquinazolin-2-ylamino)-5-(pyridine-3-yl)phenyl)acetamide] showed an IC50 of less than 5 µM.

With `C#Cc1ccc2nc(Nc3cc(NC(C)=O)cc(-c4cccnc4)c3)ncc2c1` [Example 34, N-(3-(6-Ethynylyquinazolin-2-ylamino)-5-(pyridine-3-yl)phenyl)acetamide], the IC50 was less than 5 µM.

`COc1cc2cnc(Nc3ccc(S(N)(=O)=O)cc3)nc2cc1OC` [Example 35, 4-(6,7-Dimethoxyquinazolin-2-ylamino)benzenesulfonamide] had an IC50 of less than 5 µM.

For the compound `COc1ccc2nc(Nc3ccc(C(N)=O)cc3)ncc2c1` [Example 36, 4-(6-methoxyquinazolin-2-ylamino)benzamide], the concentration for half-maximal inhibition (IC50) was less than 5 µM.

In the case of `CNC(=O)c1ccc2nc(Nc3ccc(S(N)(=O)=O)cc3)ncc2c1` [Example 37, N-methyl-2-(4-sulfamoyl-phenylamino)quinazoline-6-carboxamide], the IC50 is 5 to 10 µM.

The compound `NC(=O)c1ccc2nc(Nc3ccc(S(N)(=O)=O)cc3)ncc2c1` [Example 42, 2-(4-sulfamoylphenyl-amino)quinazoline-6-carboxamide] displayed an IC50 of less than 5 µM.

`NS(=O)(=O)c1ccc(Nc2ncc3cc(C(=O)NC4CC4)ccc3n2)cc1` [Example 43, N-cyclopropyl-2-(4-sulfamoylphenylamino)-quinazoline-6-carboxamide] registered an IC50 of less than 5 µM.

`NS(=O)(=O)c1ccc(Nc2ncc3cc(-c4cccnc4F)ccc3n2)cc1` [Example 44, 4-(6-(2-fluoropyridin-3-yl)quinazolin-2-ylamino)-benzenesulfonamide] gave an IC50 of less than 5 µM.

As to `CN1CCN(c2cc(-c3ccc4nc(Nc5ccc(S(N)(=O)=O)cc5)ncc4c3)ccn2)CC1` [Example 45, 4-(6-(2-(4-methyl-piperazin-1-yl)pyridin-4-yl)quinazolin-2-ylamino)-benzenesulfonamide], the IC50 is less than 5 µM.

`COc1cc2nc(Nc3ccc(S(N)(=O)=O)cc3)ncc2cc1Br` [Example 47, 4-(6-Bromo-7-methoxyquinazolin-2-ylamino)benzenesulfonamide] registered an IC50 of less than 5 µM.

Compound `COc1cc2nc(Nc3ccc(S(=O)(=O)N4CCOCC4)cc3)ncc2cc1Br` [Example 48, 6-bromo-7-methoxy-N-(4-(morpholinosulfonyl)phenyl)-quinazolin-2-amine] had an IC50 of less than 5 µM.

Take `C#Cc1cc2cnc(Nc3ccc(S(N)(=O)=O)cc3)nc2cc1OC` [Example 49, 4-(6-ethynyl-7-methoxy-quinazolin-2-ylamino)-benzenesulfonamide]: the concentration for half-maximal inhibition (IC50) is less than 5 µM.

`C#Cc1cc2cnc(Nc3ccc(S(=O)(=O)N4CCOCC4)cc3)nc2cc1OC` [Example 50, 6-ethynyl-7-methoxy-N-(4-(morpholinosulfonyl)-phenyl)-quinazolin-2-amine] displayed an IC50 of less than 5 µM.

Turning to `C#Cc1ccc2nc(Nc3cccc(N4CCOCC4)c3)ncc2c1` [Example 51, 6-ethynyl-N-(3-morpholinophenyl)-quinazolin-2-amine], the IC50 is less than 5 µM.

The compound `COc1cc(C#Cc2cccnc2)cc2cnc(Nc3ccc(S(N)(=O)=O)cc3)nc12` [Example 53, 4-(8-methoxy-6-(pyridin-3-ylethynyl)quinazolin-2-ylamino)benzene-sulfonamide] registered an IC50 of 10 to 25 µM.

In turn, `Cc1ccc2nc(Nc3ccc(S(N)(=O)=O)cc3)ncc2c1` [Example 54, 4-(6-methylquinazolin-2-ylamino)benzene-sulfonamide] had an IC50 of less than 5 µM.

Turning to `Cn1cc(-c2ccc3nc(Nc4ccc(S(N)(=O)=O)cc4)ncc3c2)cn1` [Example 56, 4-(6-(1-methyl-1H-pyrazol-4-yl)quinazolin-2-ylamino)benzene-sulfonamide], the IC50 was less than 5 µM.

`C#Cc1ccc2nc(Nc3ccc(N4CCOCC4)cc3)ncc2c1` [Example 57, 6-ethynyl-N-(4-morpholinophenyl)-quinazolin-2-amine] came in with an IC50 of less than 5 µM.

On to `C#Cc1ccc2nc(Nc3ccc(C(N)=O)cc3)ncc2c1` [Example 58, 4-(6-ethynylquinazolin-2-ylamino)benzamide], for which the IC50 is less than 5 µM.

As to `C#Cc1ccc2nc(Nc3cccc(C(N)=O)c3)ncc2c1` [Example 59, 3-(6-ethynylquinazolin-2-ylamino)benzamide], the IC50 is less than 5 µM.

In the case of `C#Cc1ccc2nc(Nc3cccc(S(N)(=O)=O)c3)ncc2c1` [Example 60, 3-(6-ethynylquinazolin-2-ylamino)benzene-sulfonamide], the IC50 is less than 5 µM.

Compound `C#Cc1ccc2nc(Nc3cccc(NS(C)(=O)=O)c3)ncc2c1` [Example 61, N-(3-(6-ethynylquinazolin-2-ylamino)phenyl)-methane-sulfonamide] showed an IC50 of less than 5 µM.

`COc1cc(-c2cnn(C)c2)cc2cnc(Nc3ccc(S(N)(=O)=O)cc3)nc12` [Example 62, 4-(8-methoxy-6-(1-methyl-1H-pyrazol-4-yl)-quinazolin-2-ylamino)-benzenesulfonamide] yielded a 50% inhibitory concentration (IC50) of less than 5 µM.

Compound `COc1cc(-c2nccs2)cc2cnc(Nc3ccc(S(N)(=O)=O)cc3)nc12` [Example 63, 4-(8-methoxy-6-(thiazol-2-yl)quinazolin-2-ylamino)-benzenesulfonamide] came in with an IC50 of less than 5 µM.

In the case of `COc1cc(C#CC(C)(C)O)cc2cnc(Nc3ccc(S(N)(=O)=O)cc3)nc12` [Example 65, 4-(6-(3-hydroxy-3-methylbut-1-ynyl)-8-methoxyquinazolin-2-ylamino)benzenesulfonamide], the concentration for half-maximal inhibition (IC50) is less than 5 µM.

Compound `COc1cc(C#CC(C)(C)N)cc2cnc(Nc3ccc(S(N)(=O)=O)cc3)nc12` [Example 66, 4-(6-(3-amino-3-methylbut-1-ynyl)-8-methoxyquinazolin-2-ylamino)benzenesulfonamide] showed an IC50 of 10 to 25 µM.

For the compound `NS(=O)(=O)c1ccc(Nc2ncc3cc(-c4cc[nH]n4)ccc3n2)cc1` [Example 67, 4-(6-(1H-pyrazol-3-yl)-quinazolin-2-ylamino)-benzenesulfonamide], the IC50 is less than 5 µM.

The compound `CC(=O)Nc1ccc2nc(Nc3ccc(S(N)(=O)=O)cc3)ncc2c1` [Example 68, N-(2-(4-Sulfamoylphenylamino)quinazolin-6-yl)acetamide] came in with a half-maximal inhibitory concentration (IC50) of less than 5 µM.

In turn, `C#Cc1cc2cnc(Nc3ccc(N4CCOCC4)cc3)nc2cc1OC` [Example 69, 6-ethynyl-7-methoxy-N-(4-morpholinophenyl)-quinazolin-2-amine] came in with an IC50 of less than 5 µM.

`C#Cc1cc(OC)c2nc(Nc3ccc(N4CCOCC4)cc3)ncc2c1` [Example 70, 6-ethynyl-8-methoxy-N-(4-morpholinophenyl)-quinazolin-2-amine] displayed an IC50 of less than 5 µM.

As for `C#Cc1ccc2nc(Nc3cccc(CN(C)C)c3)ncc2c1` [Example 71, N-(3-((dimethylamino)-methyl)phenyl)-6-ethynylquinazolin-2-amine], the IC50 was less than 5 µM.

Compound `C#Cc1ccc2nc(Nc3ccc(C(=O)NC(C)C)cc3)ncc2c1` [Example 72, 4-(6-ethynylquinazolin-2-ylamino)-N-isopropyl-benzamide] came in with an IC50 of less than 5 µM.

`C#Cc1cc2cnc(Nc3ccc(C(=O)NC(C)C)cc3)nc2cc1OC` [Example 73, 4-(6-ethynyl-7-methoxy-quinazolin-2-ylamino)-N-isopropylbenzamide] yielded an IC50 of less than 5 µM.

As for `C#Cc1cc2cnc(Nc3ccc(C(=O)N4CCOCC4)cc3)nc2cc1OC` [Example 74, (4-(6-ethynyl-7-methoxy-quinazolin-2-ylamino)-phenyl)(morpholino)-methanone], the 50% inhibitory concentration (IC50) is less than 5 µM.

`NC(=O)c1ccc(Nc2ncc3cc(-c4nccs4)ccc3n2)cc1` [Example 75, 4-(6-(thiazol-2-yl)-quinazolin-2-ylamino)-benzamide] returned an IC50 of less than 5 µM.
